The target of data set [1] is Hepatitis C virus serine protease, NS3/NS4A (Hepatitis C virus, UniProt A3EZI9+D2K2A8). The data set can be described thus: (§1) Inhibitory activity against Hepatitis C virus Non structural protein 3 serine protease/Non structural protein 4A serine protease. Type of data set: protein-complex assay, Hepacivirus hominis.
Data set [2] in a line: Half life in rats at 2 mg/kg. Type of data set: ADME, organism-based. Details: dose 2 mg/kg; call rule not given here. Particulars: rat, in vivo.
Data set [3] is described as follows: plasma clearance in rats at 2 mg/kg. It is filed as ADME, organism-based. Details: dose 2 mg/kg. The settings on record: rat.
Data set [4] in a line: Volume distribution in rats at 2 mg/kg. Type of data set: ADME, organism-based. Details: dose 2 mg/kg. The settings on record: rat, in vivo, read-out: Vdss.
Data set [5] in a line: Area under curve in rats at 2 mg/kg. Details: dose 2 mg/kg. The settings on record: rat, in vivo. Type of data set: ADME, organism-based.
The target of data set [6] is T1, Hepatitis C virus serine protease, NS3/NS4A (Hepatitis C virus, UniProt D2K2A8+A3EZI9). The experiment in a line: Inhibitory activity against Hepatitis C virus Non structural protein 3 serine protease/Non structural protein 4A serine protease: Not active at 50 uM. It is filed as protein-complex assay, Hepacivirus hominis.
The nature of data set [7]: Half life in rats. Type of data set: ADME. The settings on record: rat, in vivo.
Data set [8] can be described thus: Volume distribution in rats. Type of data set: ADME, organism-based. Particulars: rat, in vivo; read-out: Vdss.
A short description of data set [9]: plasma clearance in rats. It is filed as ADME, organism-based. Particulars: rat.
The nature of data set [10]: Area under curve in rats. It is filed as ADME. Particulars: rat, in vivo.
The target of data set [11] is T1, Hepatitis C virus serine protease, NS3/NS4A. Described as §1. It is filed as protein-complex assay, Hepacivirus hominis.

The source of these data is ChEMBL document CHEMBL1137195, “SAR and pharmacokinetic studies on phenethylamide inhibitors of the hepatitis C virus NS3/NS4A serine protease” (Bioorg Med Chem Lett, 2004).

In general, pKi refers to −log10 of the Ki, conventionally taken in molar units. A low value points to a high Ki. Usually half-life stands for the time in which the quantity being followed falls by half. The low end stands for fast loss, the high end for slow loss. Broadly, the clearance is the rate of elimination divided by the concentration. High values mean a high capacity for elimination, low ones a low capacity for elimination. Usually AUC stands for the area under the concentration-time curve, a measure of exposure.

Each structure is given as a SMILES string. pKi: −log10 of the molar value.

Sequence of Hepatitis C virus serine protease, NS3/NS4A (Hepatitis C virus, UniProt A3EZI9+D2K2A8) (D2K2A8 whole entry): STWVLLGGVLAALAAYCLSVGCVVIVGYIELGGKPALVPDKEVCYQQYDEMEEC
Sequence of Hepatitis C virus serine protease, NS3/NS4A (Hepatitis C virus, UniProt A3EZI9+D2K2A8) (A3EZI9 whole entry): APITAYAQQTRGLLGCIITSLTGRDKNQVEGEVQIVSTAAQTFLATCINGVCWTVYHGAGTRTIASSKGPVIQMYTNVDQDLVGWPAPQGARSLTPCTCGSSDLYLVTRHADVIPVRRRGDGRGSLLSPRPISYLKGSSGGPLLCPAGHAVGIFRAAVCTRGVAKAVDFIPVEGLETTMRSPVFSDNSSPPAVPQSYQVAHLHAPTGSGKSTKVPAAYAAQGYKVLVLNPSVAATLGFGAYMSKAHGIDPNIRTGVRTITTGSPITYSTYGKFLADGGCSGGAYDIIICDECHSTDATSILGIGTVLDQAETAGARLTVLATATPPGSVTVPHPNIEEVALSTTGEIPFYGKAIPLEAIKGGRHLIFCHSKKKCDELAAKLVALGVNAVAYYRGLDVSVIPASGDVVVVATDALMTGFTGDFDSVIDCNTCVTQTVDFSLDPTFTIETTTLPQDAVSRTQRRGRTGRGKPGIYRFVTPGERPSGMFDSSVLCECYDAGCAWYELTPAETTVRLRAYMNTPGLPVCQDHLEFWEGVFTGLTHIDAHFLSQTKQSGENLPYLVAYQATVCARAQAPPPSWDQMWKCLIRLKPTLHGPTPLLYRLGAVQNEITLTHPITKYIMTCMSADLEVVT
T1 sequence (D2K2A8 whole entry): as the sequence (D2K2A8 whole entry) above
T1 sequence (A3EZI9 whole entry): as the sequence (A3EZI9 whole entry) above

`CC(C)COC(=O)N[C@H](C(=O)N1C[C@H](C2CCCCC2)C[C@H]1C(=O)N[C@@H](CC(F)F)C(=O)NCCc1cccc(NC(C(=O)O)c2ccccc2)c1)C(C)C` (some centres undefined) gave a pKi in data set [1] of 6.19.

Regarding `CC(C)COC(=O)N[C@H](C(=O)N1C[C@H](c2ccccc2)C[C@H]1C(=O)N[C@@H](CC(F)F)C(=O)NCCc1cccc(/C=C/C(=O)O)c1)C(C)C`, in [1], the pKi was 5.89.

In [1], `COc1ccc2c(O[C@@H]3C[C@@H](C(=O)N[C@@H](CC(F)F)C(=O)NCCc4c(F)cc(C(=O)O)cc4F)N(C(=O)C(NC(=O)OCC(C)C)C(C)(C)C)C3)cc(-c3ccccc3)nc2c1` (some centres undefined) showed a pKi of 7.52. This pKi is 1.63 log units higher than that of the compound before.

As for `CC(C)COC(=O)N[C@H](C(=O)N1C[C@H](C2CCCCC2)C[C@H]1C(=O)N[C@@H](CC(F)F)C(=O)NCCc1c(F)cc(C(=O)NS(C)(=O)=O)cc1F)C(C)C`, in data set [2], the half-life was 19 min. In addition, the clearance in data set [3] was found to be 46 mL/min/kg. Besides, the Vd in data set [4] is 0.8 L/kg. Further, the pKi in [1] is 6.35. The compound further yielded an AUC in [5] of 0.9 µM·h.

`CC(C)COC(=O)N[C@H](C(=O)N1C[C@H](c2ccccc2)C[C@H]1C(=O)N[C@@H](CC(F)F)C(=O)NCCc1cccc(OC(C(=O)O)c2ccccc2)c1)C(C)C` (some centres undefined): the pKi in [1] was 6.00.

In [1], `CCC(Nc1cccc(CCNC(=O)[C@H](CC(F)F)NC(=O)[C@@H]2C[C@@H](C3CCCCC3)CN2C(=O)[C@@H](NC(=O)OCC(C)C)C(C)C)c1)C(=O)O` (some centres undefined) gave a pKi of 6.30.

In [1], `CC(C)COC(=O)N[C@H](C(=O)N1C[C@H](C2CCCCC2)C[C@H]1C(=O)N[C@@H](CC(F)F)C(=O)NCCc1c(F)ccc(OCC(=O)O)c1F)C(C)C` showed a pKi of 6.72.

As to `CC(C)COC(=O)N[C@H](C(=O)N1C[C@H](c2ccccc2)C[C@H]1C(=O)N[C@@H](CC(F)F)C(=O)NCCc1cccc(/C=C/C(=O)O)c1F)C(C)C`, the pKi in [1] is 6.40.

For the compound `COC(=O)c1cc(F)c(CCNC(=O)[C@H](CC(F)F)NC(=O)[C@@H]2C[C@@H](C3CCCCC3)CN2C(=O)[C@@H](NC(=O)OCC(C)C)C(C)C)c(F)c1`, the Ki result in [6] is recorded as “Not Active”.

Regarding `CC(C)COC(=O)N[C@H](C(=O)N1C[C@H](C2CCCCC2)C[C@H]1C(=O)N[C@@H](CC(F)F)C(=O)NCCc1c(F)ccc(OC(C)C(=O)O)c1F)C(C)C` (some centres undefined), the pKi in data set [1] was 6.92.

In turn, `CC(C)COC(=O)N[C@H](C(=O)N[C@@H](CC(C)C)C(=O)N[C@@H](CC(F)F)C(=O)NCCc1c(F)cc(C(=O)O)cc1F)C(C)C` showed a pKi in data set [1] of 6.40.

For `COc1ccc2c(O[C@@H]3C[C@@H](C(=O)N[C@@H](CC(F)F)C(=O)NCCc4c(F)cc(C(=O)O)cc4F)N(C(=O)[C@@H](NC(=O)OCC(C)C)C(C)C)C3)cc(-c3csc(NC(C)C)n3)nc2c1`, in data set [1], the pKi is 7.70.

On to `CC(C)COC(=O)N[C@H](C(=O)N1C[C@H](C2CCCCC2)C[C@H]1C(=O)N[C@@H](CC(F)F)C(=O)NCCc1c(F)cc(-c2nnn[nH]2)cc1F)C(C)C`, for which, in data set [7], the half-life came to 74 min. Moreover, the Vd in [8] came out at 0.15 L/kg. Further, the clearance in data set [9] came out at 9 mL/min/kg. Further, the pKi in data set [1] was 7.00. Besides, the AUC in [10] is 12.4 µM·h.

The compound `CC(C)COC(=O)N[C@H](C(=O)N1C[C@H](c2ccccc2)C[C@H]1C(=O)N[C@@H](CC(F)F)C(=O)NCCc1cc(/C=C/C(=O)O)ccc1F)C(C)C` had a pKi in [1] of 6.46.

Consider `CC(C)COC(=O)N[C@H](C(=O)N1CC(c2ccccc2)C[C@@H]1C(=O)N[C@@H](CC(F)F)C(=O)NCCc1c(F)cc(C(=O)O)cc1F)C(C)C` (some centres undefined), for which the half-life in data set [7] is 72 min. In [8], the Vd is 2.4 L/kg. This compound returned a clearance in data set [9] of 36 mL/min/kg. This compound had a pKi in [11] of 6.35. Further, the AUC in [10] came to 1.3 µM·h.

Turning to `CC(C)COC(=O)N[C@H](C(=O)N1CC(C2CCCCC2)C[C@@H]1C(=O)N[C@@H](CC(F)F)C(=O)NCCc1c(F)cc(C(=O)O)cc1F)C(C)C` (some centres undefined), the half-life in data set [7] was 15 min. For the same compound, the Vd in [8] was 0.45 L/kg. In data set [9], this compound displayed a clearance of 44 mL/min/kg. In data set [11], the pKi was 6.46. This compound also gave an AUC in data set [10] of 2.7 µM·h.

The compound `CC(C)COC(=O)N[C@H](C(=O)N[C@@H](CC(C)C)C(=O)N[C@@H](CC(F)F)C(=O)NCCc1ccc(C(=O)O)cc1Cl)C(C)C` gave a pKi in data set [1] of 5.92.

`CC(C)COC(=O)N[C@H](C(=O)N1CC(OCc2ccccc2)C[C@@H]1C(=O)N[C@@H](CC(F)F)C(=O)NCCc1c(F)cc(C(=O)O)cc1F)C(C)C` (stereo in doubt; cis) showed a pKi in data set [11] of 5.35.

In data set [7], `CC(C)COC(=O)N[C@H](C(=O)N1CC(OCc2ccccc2)C[C@@H]1C(=O)N[C@@H](CC(F)F)C(=O)NCCc1c(F)cc(C(=O)O)cc1F)C(C)C` (stereo in doubt; trans) returned a half-life of 48 min. Moreover, the Vd in data set [8] amounted to 4.5 L/kg. The compound also displayed a clearance in data set [9] of 222 mL/min/kg. This compound had a pKi in data set [11] of 6.26. Also, the AUC in data set [10] came to 0.4 µM·h.
